Residue numbers refer to the chain shown, from its start.
Experiments:
OATP1B1*15 = biological target: T1, OATP1B1*15 (Homo sapiens, UniProt Q9Y6L6, N130D/V174A); experiment: OATP1B1 single nucleotide polymorphism panel uptake assay, OATP1B1*15 HEK-293 cells
T1 sequence (Q9Y6L6 1-691 N130D/V174A): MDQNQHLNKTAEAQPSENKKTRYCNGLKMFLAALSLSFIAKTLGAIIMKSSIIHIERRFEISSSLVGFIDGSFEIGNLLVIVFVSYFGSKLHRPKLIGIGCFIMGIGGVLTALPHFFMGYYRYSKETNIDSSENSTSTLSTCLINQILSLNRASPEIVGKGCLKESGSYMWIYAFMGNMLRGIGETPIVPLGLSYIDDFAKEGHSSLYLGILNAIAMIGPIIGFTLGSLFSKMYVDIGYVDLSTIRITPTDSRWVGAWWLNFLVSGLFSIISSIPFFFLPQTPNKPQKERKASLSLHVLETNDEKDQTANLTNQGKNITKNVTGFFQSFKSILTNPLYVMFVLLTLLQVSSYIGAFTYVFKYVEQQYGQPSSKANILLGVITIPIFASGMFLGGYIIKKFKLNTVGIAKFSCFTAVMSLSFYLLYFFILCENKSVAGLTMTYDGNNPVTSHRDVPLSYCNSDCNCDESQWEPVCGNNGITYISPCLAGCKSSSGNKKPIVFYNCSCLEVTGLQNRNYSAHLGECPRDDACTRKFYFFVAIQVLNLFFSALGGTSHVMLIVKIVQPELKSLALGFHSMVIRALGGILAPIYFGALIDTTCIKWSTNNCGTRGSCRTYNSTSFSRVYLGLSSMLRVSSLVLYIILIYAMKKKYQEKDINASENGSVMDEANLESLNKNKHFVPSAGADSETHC

[1] = biological target: T2, Organic Anion-Transporting Polypeptide 1B1 (Homo sapiens, UniProt Q9Y6L6); experiment: Suspension assay, centrifugation method, Corning TransportoCells OATP1B1*1a; format: in vitro ADME; conditions: 5× substrate solution containing 25 μM, 10 minutes at 37° C., 600 k cells/well
T2 construct: host or cells: HEK293 cells, gene delivered by electroporation
T2 sequence (Q9Y6L6 1-691): T1 sequence (Q9Y6L6 1-691 N130D/V174A) with D130N, A174V
Excerpt: In this experiment, a suspension assay for characterizing the activity of a drug transporter protein in cryopreserved, Corning® TransportoCells™ was developed. More specifically, the use of a centrifugation method versus a vacuum manifold for separating unreacted substrate in characterizing the activity of Organic Anion-Transporting Polypeptide 1B1 was investigated. Corning® TransportoCells™ transiently transfected with the gene OATP1B1*1a were obtained from Corning Life Sciences (Cat. No. 354859). In the Corning® TransportoCells™, the gene OATP1B1*1a was delivered into HEK293 cells via electroporation and the HEK293 cells were recovered and cryopreserved 1 hour post-electroporation. In order to obtain suitable expression of the Organic Anion-Transporting Polypeptide 1B1 encoded by OATP1B1*1a, the Corning® TransportoCells™ were thawed, cultured, and harvested.
The cells were cultured in T-175 Vented-Cap Culture Flasks with Poly-D-Lysine (hereinafter, “PDL”; available from Corning Life Sciences, Cat. No. 354539) with plating medium for 48 hours at 37° C. and 8% CO2. The plating medium is detailed in Table 16. After 24 hours, sodium butyrate (obtained from Sigma) was added to the cells to reach final 5 mM. After 48 hours, the cells were rinsed twice with Phosphate-Buffered Saline (hereinafter, “PBS”, obtained from Corning).
The cells were then harvested with 0.05% Trypsin (obtained from Sigma) and washed once with Hank's Balanced Salt Solution (hereinafter, “HBSS”) buffer (with Ca^2+ and Mg^2+, obtained from Corning). Then, the cells were resuspended in HBSS (obtained from Corning) to a final cell density of 3×10^6 cells/ml. Two suspension assay experiments were then performed to characterize the activity of Organic Anion-Transporting Polypeptide 1B1 in the Corning® TransportoCells™.
In a first suspension assay experiment, use of a centrifugation method was investigated to separate excess substrate and cells. Referencing FIG. 20, in the first suspension assay experiment, the resuspended Corning® TransportoCells™ were aliquotted (200 μl per well at a density of 600 k cells/well) into either a Corning® 96 Well Clear Round Bottom TC-Treated Microplate (available from Corning Life Sciences, Cat. No. 3799) or a Corning® 96 Well Clear V-Bottom TC-Treated Microplate (available from Corning Life Sciences, Cat. No. 3894). […] The cells were then incubated for 10 minutes at 37° C. After the incubation time, the reaction was stopped by adding ice cold HBSS buffer (50 μl) to the cells and placing the microplates on ice. Then, the microplates were centrifuged at 3000 g for 1 minute at 4° C. […] The cell lysis was then subjected to the appropriate protein analysis and/or fluorescence analysis to characterize the activity of Organic Anion-Transporting Polypeptide 1B1.

Compound | uptake activity / transport compared to OATP1B1*1a cells (in words) (OATP1B1*15) | Km (dog Oatp1b4) | uptake of substrate (in words) (dog Oatp1b4; HEK-293 cells overexpressing the transporter) | Uptake Activity OATP1B1 ([1]; Round Bottom) | Uptake Ratio ([1]; Round Bottom) | Uptake Activity OATP1B1 ([1]; V-Bottom) | Uptake Ratio ([1]; V-Bottom)
C[C@]12CC[C@@H]3c4ccc(O)cc4CC[C@H]3[C@@H]1CC[C@@H]2O[C@@H]1O[C@H](C(=O)O)[C@@H](O)[C@H](O)[C@H]1O [E17βG] | Significantly impaired transport | 12.2 ± 0.6 µM | significant uptake | – | – | – | –
fluorescein methotrexate [FMTX] | Significantly impaired transport | – | – | 0.38 pmol/mg/min | 10.9 | 1.04 pmol/mg/min | 102.3

— patent US20170067909A1, “ASSAY-READY RECOMBINANT CELLS TRANSIENTLY OVEREXPRESSING GENES ENCODING DRUG TRANSPORTER PROTEINS AND/OR DRUG METABOLIZING ENZYMES” (Corning Incorporated, priority 2012, published 2017)
